In patent US10793563B2, “GCN2 inhibitors and uses thereof” (Merck Patent GmbH, priority 2018, dated 2020):

Biological target: GCN2 kinase (Homo sapiens (Human), UniProt Q9P2K8)
Assay: GCN2 Enzyme Inhibition Assay (Transcreener ADP2 fluorescence polarization)
Format: biochemical
Details: 280 μM ATP, 200 μM (RS)7 peptide, 4 nM GCN2, 25° C.
Protocol: Compounds were screened for their ability to inhibit GCN2 kinase activity using a Transcreener® ADP^2 fluorescence polarization assay that detects ADP levels (BellBrook Labs, WI). Assays were carried out in a buffer consisting of 25 mM Tris-HCl (pH 7.5), 50 mM NaCl, 10 mM MgCl2 and 1 mM DTT. […] Assays were carried out at 25° C. in the presence of a (typical) final concentration of 4 nM GCN2 kinase. An assay buffer containing GCN2 kinase and (RS)7 was prepared. […] The plate was incubated for 10 minutes at 25° C. prior to the addition of 4.7 μL of ATP stock buffer to initiate the enzyme reaction. The reaction was allowed to proceed for 1 hour at 25° C., prior to the addition of 10 μL detection buffer (consisting of appropriate concentrations of ADP^2 antibody and ADP Alexa633 tracer in 1× stop and detect buffer as supplied by BellBrook Labs). […] Percentage inhibition of enzyme activity was then calculated at each compound dose. IC50 and Ki(app) (using known assay and kinetic parameters) values were calculated from percentage inhibition data using a non-linear, tight-binding algorithm. All data analysis was undertaken using the Screener® software package (Genedata, Switzerland).

GCN2 kinase, sequence (Q9P2K8 whole entry): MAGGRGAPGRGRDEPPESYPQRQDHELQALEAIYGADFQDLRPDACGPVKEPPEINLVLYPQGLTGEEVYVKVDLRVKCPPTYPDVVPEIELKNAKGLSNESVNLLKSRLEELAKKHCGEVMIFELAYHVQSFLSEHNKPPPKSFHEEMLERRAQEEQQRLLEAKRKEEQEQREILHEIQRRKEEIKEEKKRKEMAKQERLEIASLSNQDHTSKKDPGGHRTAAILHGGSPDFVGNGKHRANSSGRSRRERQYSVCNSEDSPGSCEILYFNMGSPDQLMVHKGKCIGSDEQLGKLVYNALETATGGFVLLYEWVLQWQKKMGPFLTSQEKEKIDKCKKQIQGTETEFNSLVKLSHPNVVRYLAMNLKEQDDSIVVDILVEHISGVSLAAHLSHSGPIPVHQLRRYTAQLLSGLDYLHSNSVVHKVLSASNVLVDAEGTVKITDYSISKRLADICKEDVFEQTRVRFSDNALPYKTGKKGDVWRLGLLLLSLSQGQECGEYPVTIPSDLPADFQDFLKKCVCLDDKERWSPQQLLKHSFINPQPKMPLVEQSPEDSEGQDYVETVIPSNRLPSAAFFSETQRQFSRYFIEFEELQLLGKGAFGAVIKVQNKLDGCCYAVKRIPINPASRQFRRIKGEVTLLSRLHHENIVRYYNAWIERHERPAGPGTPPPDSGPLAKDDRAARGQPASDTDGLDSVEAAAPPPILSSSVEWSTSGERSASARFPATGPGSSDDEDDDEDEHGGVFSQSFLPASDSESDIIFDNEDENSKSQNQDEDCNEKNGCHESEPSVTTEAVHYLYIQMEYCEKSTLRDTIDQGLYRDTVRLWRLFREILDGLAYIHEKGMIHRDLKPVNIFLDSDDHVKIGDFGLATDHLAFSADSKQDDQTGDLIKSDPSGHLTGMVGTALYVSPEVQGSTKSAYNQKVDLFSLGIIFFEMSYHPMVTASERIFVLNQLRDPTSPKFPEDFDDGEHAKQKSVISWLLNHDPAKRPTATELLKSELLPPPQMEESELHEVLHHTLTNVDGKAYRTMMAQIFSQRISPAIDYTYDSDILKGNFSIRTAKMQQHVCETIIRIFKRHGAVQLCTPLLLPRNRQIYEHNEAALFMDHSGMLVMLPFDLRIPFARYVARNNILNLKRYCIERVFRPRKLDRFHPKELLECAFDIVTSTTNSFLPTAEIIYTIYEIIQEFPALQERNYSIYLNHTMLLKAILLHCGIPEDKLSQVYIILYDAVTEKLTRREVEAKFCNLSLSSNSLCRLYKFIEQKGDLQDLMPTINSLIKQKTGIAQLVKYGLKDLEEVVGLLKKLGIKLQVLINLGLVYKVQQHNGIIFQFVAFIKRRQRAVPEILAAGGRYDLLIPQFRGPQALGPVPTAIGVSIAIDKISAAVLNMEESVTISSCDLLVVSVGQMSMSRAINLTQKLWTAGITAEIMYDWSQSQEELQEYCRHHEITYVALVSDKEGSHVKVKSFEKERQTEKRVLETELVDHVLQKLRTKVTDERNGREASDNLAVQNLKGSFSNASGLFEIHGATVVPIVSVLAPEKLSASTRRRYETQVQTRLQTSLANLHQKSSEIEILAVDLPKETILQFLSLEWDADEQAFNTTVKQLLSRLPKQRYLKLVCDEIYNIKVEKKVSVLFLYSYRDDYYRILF

Row | IC50 [nM] | Structure (SMILES)
1 | 100 to 1000 | O=C(CO)N[C@H]1C[C@H](O)CN(c2ccnc(-c3cnc4ccc(C(F)(F)F)cn34)n2)C1 [I-253, 2-hydroxy-N-((3S,5S)-5-hydroxy-1-(2-(6-(trifluoromethyl)imidazo[1,2-a]pyridin-3-yl)pyrimidin-4-yl)piperidin-3-yl)acetamide]
2 | 100 to 1000 | CC(O)C(=O)N[C@H]1C[C@H](O)CN(c2ccnc(-c3cnc4ccc(C(F)(F)F)cn34)n2)C1 (stereo partly drawn) [I-254, 2-hydroxy-N-((3S,5S)-5-hydroxy-1-(2-(6-(trifluoromethyl)imidazo[1,2-a]pyridin-3-yl)pyrimidin-4-yl)piperidin-3-yl)propanamide]
3 | 100 to 1000 | C[C@@H]1C[C@@H](N)CN(c2ccnc(-c3cnc4ccc(Cl)cn34)n2)C1 [I-256, (3R,5R)-1-(2-(6-chloroimidazo[1,2-a]pyridin-3-yl)pyrimidin-4-yl)-5-methylpiperidin-3-amine]
4 | 100 to 1000 | O=C(N[C@H]1C[C@H](O)CN(c2ccnc(-c3cnc4ccc(C(F)(F)F)cn34)n2)C1)c1cn[nH]c1 [I-257, N-((3S,5S)-5-hydroxy-1-(2-(6-(trifluoromethyl)imidazo[1,2-a]pyridin-3-yl)pyrimidin-4-yl)piperidin-3-yl)-1H-pyrazole-4-carboxamide]
5 | 10 to 100 | COCCN1CCN(c2ccnc(-c3cnc4ccc(C(F)(F)F)cn34)n2)CC1C(N)=O (stereo not shown) [I-258, 1-(2-methoxyethyl)-4-(2-(6-(trifluoromethyl)imidazo[1,2-a]pyridin-3-yl)pyrimidin-4-yl)piperazine-2-carboxamide]
6 | < 10 | C[C@H]1CN(c2ccnc(-c3cnc4ccc(C(F)(F)F)cn34)n2)C[C@@H](C(N)=O)O1 [I-264, (2S,6S)-6-methyl-4-(2-(6-(trifluoromethyl)imidazo[1,2-a]pyridin-3-yl)pyrimidin-4-yl)morpholine-2-carboxamide]
7 | 10 to 100 | C[C@@H]1CN(c2ccnc(-c3cnc4ccc(C(F)(F)F)cn34)n2)C[C@@H](C(N)=O)O1 [I-265, (2S,6R)-6-methyl-4-(2-(6-(trifluoromethyl)imidazo[1,2-a]pyridin-3-yl)pyrimidin-4-yl)morpholine-2-carboxamide]
8 | 100 to 1000 | CC(=O)N1C(C)CN(c2ccnc(-c3cnc4ccc(Cl)cn34)n2)CC1c1c[nH]nc1C (stereo not shown) [I-276, 1-(4-(2-(6-chloroimidazo[1,2-a]pyridin-3-yl)pyrimidin-4-yl)-2-methyl-6-(3-methyl-1H-pyrazol-4-yl)piperazin-1-yl)ethan-1-one]
9 | 100 to 1000 | CC(C)(C)OC(=O)N1CC2(C1)CN(c1ccnc(-c3cnc4ccc(C(F)(F)F)cn34)n1)CC(C)(C)O2 [I-292, tert-butyl 6,6-dimethyl-8-(2-(6-(trifluoromethyl)imidazo[1,2-a]pyridin-3-yl)pyrimidin-4-yl)-5-oxa-2,8-diazaspiro[3.5]nonane-2-carboxylate]
10 | 100 to 1000 | O=C1NC[C@]12CCCN(c1ccnc(-c3cnc4ccc(C(F)(F)F)cn34)n1)C2 [I-296, (S)-6-(2-(6-(trifluoromethyl)imidazo[1,2-a]pyridin-3-yl)pyrimidin-4-yl)-2,6-diazaspiro[3.5]nonan-1-one]
11 | 100 to 1000 | Clc1ccc2ncc(-c3nccc(N4CCCC5(CNC5)C4)n3)n2c1 [I-299, 6-(2-(6-chloroimidazo[1,2-a]pyridin-3-yl)pyrimidin-4-yl)-2,6-diazaspiro[3.5]nonane]
12 | 100 to 1000 | CN(C)C(=O)COCC1CN(c2ccnc(-c3cnc4ccc(C(F)(F)F)cn34)n2)CC(C)(C)O1 (stereo not shown) [I-305, 2-((6,6-dimethyl-4-(2-(6-(trifluoromethyl)imidazo[1,2-a]pyridin-3-yl)pyrimidin-4-yl)morpholin-2-yl)methoxy)-N,N-dimethylacetamide]
13 | 100 to 1000 | CC(C)(C(N)=O)C1CCCN(c2ccnc(-c3cnc4ccc(Cl)cn34)n2)C1 (stereo not shown) [I-309, 2-(1-(2-(6-chloroimidazo[1,2-a]pyridin-3-yl)pyrimidin-4-yl)piperidin-3-yl)-2-methylpropanamide]
14 | 100 to 1000 | C[C@H]1C[C@@H](N=S(C)(C)=O)CN(c2ccnc(-c3cnc4ccc(S(C)(=O)=O)cn34)n2)C1 [I-312, dimethyl(((3R,5S)-5-methyl-1-(2-(6-(methylsulfonyl)imidazo[1,2-a]pyridin-3-yl)pyrimidin-4-yl)piperidin-3-yl)imino)-λ6-sulfanone]
15 | 100 to 1000 | C[C@H]1C[C@@H](N=S(C)(C)=O)CN(c2ccnc(-c3cnc4ccc(S(=O)(=O)NC5CC5)cn34)n2)C1 [I-319, N-cyclopropyl-3-(4-((3R,5S)-3-((dimethyl(oxo)-λ6-sulfaneylidene)amino)-5-methylpiperidin-1-yl)pyrimidin-2-yl)imidazo[1,2-a]pyridine-6-sulfonamide]
16 | 100 to 1000 | C[C@H]1C[C@@H](N=S(C)(C)=O)CN(c2ccnc(-c3cnc4ccc(S(N)(=O)=O)cn34)n2)C1 [I-328, 3-(4-((3R,5S)-3-((dimethyl(oxo)-λ6-sulfaneylidene)amino)-5-methylpiperidin-1-yl)pyrimidin-2-yl)imidazo[1,2-a]pyridine-6-sulfonamide]

Row | IC50 [nM] | Structure (SMILES)
17 | 100 to 1000 | C[C@@H]1C[C@H](N=S(C)(C)=O)CN(c2ccnc(-c3cnc4ccc(N5CC(F)C5)cn34)n2)C1 [I-330, (((3 S,5R)-1-(2-(6-(3-fluoroazetidin-1-yl)imidazo[1,2-a]pyridin-3-yl)pyrimidin-4-yl)-5-methylpiperidin-3-yl)imino)dimethyl-λ6-sulfanone]
18 | 100 to 1000 | CC1CN(c2ccnc(-c3cnc4ccc(C(F)(F)F)cn34)n2)CC(C#N)O1 (stereo not shown) [I-331, 6-methyl-4-(2-(6-(trifluoromethyl)imidazo[1,2-a]pyridin-3-yl)pyrimidin-4-yl)morpholine-2-carbonitrile]
19 | 100 to 1000 | Cc1noc(C2CN(c3ccnc(-c4cnc5ccc(C(F)(F)F)cn45)n3)CCN2C)n1 (stereo not shown) [I-332, 3-methyl-5-(1-methyl-4-(2-(6-(trifluoromethyl)imidazo[1,2-a]pyridin-3-yl)pyrimidin-4-yl)piperazin-2-yl)-1,2,4-oxadiazole]
20 | 100 to 1000 | CC1(C)CN(c2ccnc(-c3cnc4ccc(C(F)(F)F)cn34)n2)CCN1CC(F)(F)F [I-333, 3-(4-(3,3-dimethyl-4-(2,2,2-trifluoroethyl)piperazin-1-yl)pyrimidin-2-yl)-6-(trifluoromethyl)imidazo[1,2-a]pyridine]
21 | 100 to 1000 | CC1(C)CN(c2ccnc(-c3cnc4ccc(C(F)(F)F)cn34)n2)CCN1 [I-334, 3-(4-(3,3-dimethylpiperazin-1-yl)pyrimidin-2-yl)-6-(trifluoromethyl)imidazo[1,2-a]pyridine]
22 | 100 to 1000 | COCCN1C(C)CN(c2ccnc(-c3cnc4ccc(C(F)(F)F)cn34)n2)CC1C (stereo not shown) [I-335, 3-(4-(4-(2-methoxyethyl)-3,5-dimethylpiperazin-1-yl)pyrimidin-2-yl)-6-(trifluoromethyl)imidazo[1,2-a]pyridine]
23 | 10 to 100 | CC(=O)N1CCN(c2ccnc(-c3cnc4ccc(C(F)(F)F)cn34)n2)CC1(C)C [I-336, 1-(2,2-dimethyl-4-(2-(6-(trifluoromethyl)imidazo[1,2-a]pyridin-3-yl)pyrimidin-4-yl)piperazin-1-yl)ethan-1-one]
24 | 100 to 1000 | Cc1nnc(C2CN(c3ccnc(-c4cnc5ccc(C(F)(F)F)cn45)n3)CCN2)[nH]1 (stereo not shown) [I-337, 3-(4-(3-(5-methyl-4H-1,2,4-triazol-3-yl)piperazin-1-yl)pyrimidin-2-yl)-6-(trifluoromethyl)imidazo[1,2-a]pyridine]
25 | 100 to 1000 | O=S1(=O)CCN2CCN(c3ccnc(-c4cnc5ccc(C(F)(F)F)cn45)n3)CC2C1 (stereo not shown) [I-338, 8-(2-(6-(trifluoromethyl)imidazo[1,2-a]pyridin-3-yl)pyrimidin-4-yl)octahydropyrazino[2,1-c][1,4]thiazine 2,2-dioxide]
26 | 100 to 1000 | Cc1noc([C@@H]2CN(c3ccnc(-c4cnc5cc(F)c(C6CC6)cn45)n3)C[C@H](C)O2)n1 [I-341, (2S,6S)-4-(2-(6-cyclopropyl-7-fluoroimidazo[1,2-a]pyridin-3-yl)pyrimidin-4-yl)-2-methyl-6-(3-methyl-1,2,4-oxadiazol-5-yl)morpholine]
27 | 100 to 1000 | NC(=O)[C@@H]1CN(c2ccnc(-c3cnc4ccc(Cl)cn34)n2)CCN1C1CC1 [I-350, (s)-4-(2-(6-chloroimidazo[1,2-a]pyridin-3-yl)pyrimidin-4-yl)-1-cyclopropylpiperazine-2-carboxamide]
28 | 100 to 1000 | Cc1[nH]ncc1[C@H]1[C@H](C)N(c2ccnc(-c3cnc4ccc(C(F)(F)F)cn34)n2)CCN1C1COC1 [I-367]
29 | < 10 | FC(F)(F)c1ccc2ncc(-c3nccc(N4CCN(CC5COC5)C(c5cn[nH]c5)C4)n3)n2c1 (stereo not shown) [I-374, 3-(4-(4-(oxetan-3-ylmethyl)-3-(1H-pyrazol-4-yl)piperazin-1-yl)pyrimidin-2-yl)-6-(trifluoromethyl)imidazo[1,2-a]pyridine]
30 | 10 to 100 | Cc1noc([C@H]2CN(c3ccnc(-c4cnc5ccc(C(F)F)cn45)n3)C[C@@H](C)O2)n1 [I-375, (2R,6R)-4-(2-(6-(difluoromethyl)imidazo[1,2-a]pyridin-3-yl)pyrimidin-4-yl)-2-methyl-6-(3-methyl-1,2,4-oxadiazol-5-yl)morpholine]
31 | 10 to 100 | CC1C(C(N)=O)NCCN1c1ccnc(-c2cnc3ccc(C(F)F)cn23)n1 (stereo not shown) [I-378, 4-(2-(6-(difluoromethyl)imidazo[1,2-a]pyridin-3-yl)pyrimidin-4-yl)-3-methylpiperazine-2-carboxamide]
